Results on two compounds are retold here after patent US11221329B2, “Treatment of neurological and neurodevelopmental diseases and disorders associated with aberrant ion channel expression and activity” (LIEBER INSTITUTE FOR BRAIN DEVELOPMENT, priority 2015, dated 2022).

“Also recorded” adds a separate entry of the source.

Assay [1] deals with prefrontal neurons from wildtype littermates. Nature of the assay: Whole-cell current-clamp AP output in prefrontal neurons from wildtype littermates. In kind it is cell-based, mouse. As for the experimental part: (§1) In the mouse model used for Pitt-Hopkins syndrome (Sweatt, 2013) mice are heterozygous for a deletion of the DNA-binding domain of the Transcription Factor 4 (B6; 129-TCF4tm1Zhu/J; stock number 013598, Jackson Laboratory, Bar Harbor, Me.) (Zhuang et al., 1996). Control mouse experiments were conducted with wild-type littermates. Mice were maintained by SoBran on a 12-hour light cycle and fed ad libitum.
(§2) Acute brain slices were obtained from rats and mice as described previously (Maher and Loturco, 2012b). […]
(§3) For all experiments, artificial cerebrospinal fluid (ACSF) was oxygenated (95% O2 and 5% CO2) and contained in (in mM): 125 NaCl, 25 NaHCO3, 1.25 NaH2PO4, 3 KCl, 25 dextrose, 1 MgCl2, and 2 CaCl2, pH 7.3. […] Current signals were recorded with either a Multiclamp 700A (Molecular Devices) or with an Axopatch 200B amplifier (Molecular Devices) and were filtered at 2 kHz using a built-in Bessel filter and digitized at 10 kHz. […]
(§4) Axograph was used on a Macintosh computer for analysis. […] Each current pulse was measured in triplicate, and the number of resulting APs was averaged. For analysis of fAHP amplitude, the second and third current evoked spikes within the 600 ms pulse were measured. The fAHP potential was measured by subtracting the voltage at the peak of the fAHP from the threshold potential for spike initiation (slope of AP exceeds 50 mV/ms). […]

A further assay has as its system crTCF4 cells. Briefly: Whole-cell current-clamp AP spiking in crTCF4 (CRISPR-Cas9 TCF4 mutated) mPFC neurons. In kind it is cell-based, rat. As for the experimental part: (§5) Pregnant Wistar rats were obtained from Charles River Laboratories, Inc., maintained by SoBran on a 12-hour light cycle and fed ad libitum. In utero electroporation was performed as previously described (Chen et al., 2014; Maher and Loturco, 2012a). Electroporation was performed on embryonic day 16 (E16) and gestation age was confirmed during surgery. All plasmids were used at a final concentration of 1.5 μg/μl, and the mPFC was targeted for transfection. Pregnant dams were returned to the same housing conditions after recovery from surgery, and after litters were born, transfected rats were used for experiments at days P18-24.
as §2
(§6) For all experiments, artificial cerebrospinal fluid (ACSF) was oxygenated (95% O2 and 5% CO2) and contained in (in mM): 125 NaCl, 25 NaHCO3, 1.25 NaH2PO4, 3 KCl, 25 dextrose, 1 MgCl2, and 2 CaCl2, pH 7.3. […] Current signals were recorded with either a Multiclamp 700A (Molecular Devices) or with an Axopatch 200B amplifier (Molecular Devices) and were filtered at 2 kHz using a built-in Bessel filter and digitized at 10 kHz.

The next assay has as its system TCF4+/tr cells. Briefly: Whole-cell current-clamp AP spiking in mPFC layer 2/3 neurons of the PTHS mouse model. In kind it is cell-based. On the procedure: as §1, §2, §3, §4
Another assay concerns shTCF4 cells. Nature of the assay: Whole-cell current-clamp recordings (AP spiking, mAHP/sAHP) in shTCF4 (TCF4 knockdown) mPFC layer 2/3 pyramidal neurons, acute brain slices. To be noted: shTCF4 cells. In kind it is cell-based, rat. On the procedure: as §5
(§7) Acute brain slices were obtained from rats and mice as described previously (Maher and Loturco, 2012b). Briefly, P18-24 male and female animals were deeply anesthetized with isoflurane and transcardially perfused with ice-cold oxygenated (95% O2 and 5% CO2) dissecting buffer containing (in mM): 83 NaCl, 2.5 KCl, 1 NaH2PO4, 26.2 NaHCO3, 22 glucose, 72 sucrose, 0.5 CaCl2, and 3.3 MgCl2. Animals were humanly sacrificed and decapitated and the brains were rapidly removed and immersed in ice-cold oxygenated dissection buffer. Coronal slices (300 μm) were cut using a vibratome (Microm HM650V), incubated in dissection buffer for 30-45 minutes at 34° C., and then stored at room temperature. Slices were visualized using IR differential interference microscopy (DIC) (Olympus BX51WI) and a CCD camera (QICAM, QImaging). Individual layer 2/3 pyramidal cells expressing EGFP in rat brain slices were visualized with epifluorescent illumination and a 43× Olympus LUMPlanFLN (0.8 numerical aperture) objective.
(§8) For all experiments, artificial cerebrospinal fluid (ACSF) was oxygenated (95% O2 and 5% CO2) and contained in (in mM): 125 NaCl, 25 NaHCO3, 1.25 NaH2PO4, 3 KCl, 25 dextrose, 1 MgCl2, and 2 CaCl2, pH 7.3. Patch pipettes were fabricated from borosilicate glass (N51A, King Precision Glass, Inc.) to a resistance of 2-5 MΩ. For current- and voltage-clamp measurements, pipettes were filled with (in mM): 125 potassium gluconate, 10 HEPES, 4 Mg-ATP, 0.3 Na-GTP, 0.1 EGTA, 10 phosophocreatine, 0.05% biocytin, adjusted to pH 7.3 with KOH. For all experiments GABAa receptors were blocked with SR-95531 (Gabazine, 5 μM, Ascent Scientific). For AHP current experiments, synaptic currents were blocked with DL-2-amino-5-phosphopentanoic acid (D,L-AP5, 100 μM, Ascent Scientific), 2,3, dioxo-6-nitro-1,2,3,4, tetrahydrobenzo-quinoxaline-7-sulfonamide (NBQX, 10 μM) and SR-95531 (Gabazine, 5 μM, Ascent Scientific). Ca2+-activated currents were blocked with Tetraethylammonium chloride (TEA, 1 mM, Abcam), apamin (100 nM, Abcam), and carbachol (10 μM, Abcam). Current signals were recorded with either a Multiclamp 700A (Molecular Devices) or with an Axopatch 200B amplifier (Molecular Devices) and were filtered at 2 kHz using a built-in Bessel filter and digitized at 10 kHz. Voltage signals were filtered at 2 kHz and digitized at 10 kHz. Data were acquired using Axograph on a Dell PC. Data acquisition was terminated when series resistance was >15 MΩ. For voltage clamp recordings, pyramidal cells were held at −60 mV. No holding current was used for current-clamp recordings.
(§9) Axograph was used on a Macintosh computer for analysis. To measure spike frequency, EGFP-positive layer 2/3 neurons of the mPFC were injected with a 600 ms depolarizing current pulses ranging from 50 to 500 pA at 50 pA increments with an 10 s inter-trial interval. Each current pulse was measured in triplicate, and the number of resulting APs was averaged. For analysis of fAHP amplitude, the second and third current evoked spikes within the 600 ms pulse were measured. The fAHP potential was measured by subtracting the voltage at the peak of the fAHP from the threshold potential for spike initiation (slope of AP exceeds 50 mV/ms). The mAHP potential was measured at the peak of the AHP that followed the 600 ms current pulse. […]

Another assay deals with crEmpty cells. Briefly: Whole-cell current-clamp AP spiking in crEmpty (CRISPR control) mPFC neurons. It is filed as cell-based, rat. As for the experimental part: as §5, §2, §6
A further assay deals with shCon cells. Nature of the assay: Whole-cell current-clamp recordings (AP spiking, mAHP/sAHP) in shCon (control shRNA) mPFC layer 2/3 pyramidal neurons, acute brain slices. It is filed as cell-based, rat. As for the experimental part: as §5, §7, §8, §9
For another assay, the target named is KCNQ1 (Homo sapiens, UniProt P51787). To be noted: KCNQ subtype-selective blocker; Soh and Tzingounis, 2010; cited from earlier work.
The target of a further assay is KCNQ2 (Homo sapiens, UniProt O43526). To be noted: KCNQ subtype-selective blocker; Soh and Tzingounis, 2010; cited from earlier work.

As to `COc1cc(NC(=O)c2ccc(-c3ccc(Cl)cc3)o2)cc(OC)c1` [A-803467, 5-(4-Chlorophenyl)-N-(3,5-dimethoxyphenyl)-2-furancarboxamide], the “effect on action potential output” value in assay [1] (A-803467, p=0.06, N=5) is recorded as “has no effect on action potential output”. The “effect on the frequency of APs” value is recorded as “effective at increasing firing frequency; also recorded: significantly increased firing frequency” in the assay on crTCF4 cells (A-803467, significant for current pulses 400-500 pA, N=8, p=0.039) and “effective at rescuing AP output; also recorded: significantly increased firing frequency” in the assay on TCF4+/tr cells (A-803467, significant for current pulses 250-350 pA, N=8). Further, in the assay on shTCF4 cells (A-803467 200 nM bath application, significant for current pulses 350-500 pA, N=11, p<0.05), the “effect on the frequency of APs generated in response to increasing current injections” value is listed as “effective at increasing firing frequency; also recorded: significantly increased firing”. For the same compound, in the assay on crEmpty cells (A-803467, p=0.15), the “effect on AP frequency” value is on record as “had no effect on firing frequency; also recorded: No effect on AP frequency”. Besides, the “effect on firing frequency” value with shCon cells (A-803467, N=7, p=0.14) is on record as “had no effect on firing frequency”.

For `c1ccc(C(NCc2cccnc2)(c2ccccc2)c2ccccc2)cc1` [UCL2077, N-Trityl-3-pyridinemethanamine], on KCNQ1, the “inhibition of KCNQ1” value was “strongly inhibits”. Also, the “effect on action potential output” value in assay [1] (UCL2077, p=0.58, N=11) is “has no effect on action potential output”. In addition, in the assay with crTCF4 cells (UCL2077, significant for current pulses 400-500 pA, N=7, p=0.045), the “effect on the frequency of APs” value is on record as “significantly increased firing frequency”. Further, the “inhibition of KCNQ2” value on KCNQ2 is recorded as “strongly inhibits”. The “effect on the frequency of AP spiking” value with TCF4+/tr cells (UCL2077, N=8) is listed as “had no effect; also recorded: has no effect on the frequency of AP spiking”. In the assay on shTCF4 cells (UCL2077 10 μM, before vs after, within neuron, significant for current pulses 250-500 pA, N=17, p=0.0002), the “effect on the frequency of APs generated in response to current injections” value is recorded as “effective at increasing the spiking frequency; also recorded: significantly increased firing frequency”. Moreover, the “amplitude of the sAHP after application” value with shTCF4 cells (UCL2077, before −2.88±0.42 mV, N=19, p<0.05) is on record as −2.53±0.38 mV; with shCon cells (UCL2077, before −2.60±0.42 mV, N=9, not significant) it was −2.69±0.48 mV. In addition, the “amplitude of the mAHP after application” value in the assay on shTCF4 cells (UCL2077, before −4.43±0.55 mV, N=19, p=0.003) is −3.736±0.49 mV; with shCon cells (UCL2077, before −3.78±0.66 mV, N=9, not significant), −4.01±0.66 mV. For the same compound, the “effect on AP frequency” value in the assay on crEmpty cells (UCL2077, p=0.99) is reported as “No effect on AP frequency”. For the same compound, in the assay with shCon cells (UCL2077, N=8, p=0.35), the “effect on the frequency of APs (spiking)” value was “neither UCL2077 (p=0.35) nor JNJ303 (p=0.11) had an effect on spiking”.
